According to ChEMBL document CHEMBL2417475, “Synthesis and SAR studies of marine natural products ma'edamines A, B and their analogues” (Bioorg Med Chem Lett, 2013):

Legend:
Type in all cases: functional, cell-based
CAMA-1 = assay: Antiproliferative activity against human progesterone receptor and HER2 deficient CAMA1 cells expressing estrogen receptor after 72 hrs by MTT assay; conditions: CAMA-1, 72 h
SK-BR-3 = assay: Antiproliferative activity against human estrogen receptor and progesterone receptor deficient SKBR3 cells expressing HER2 after 72 hrs by MTT assay; conditions: SK-BR-3, 72 h
T47D = assay: Antiproliferative activity against human HER2 deficient T47D cells expressing estrogen receptor and progesterone receptor after 72 hrs by MTT assay

Row | IC50 (SK-BR-3) [µM] | IC50 (T47D) [µM] | Structure (SMILES) | IC50 (CAMA-1) [µM]
1 | > 10 | > 10 | COc1ccc(Cc2nc(-c3cc(Cl)c(OCCCN(C)C)c(Cl)c3)c[nH]c2=O)cc1Cl | > 10
2 | 5.5 | 6.33 | CN(C)CCCOc1c(Br)cc(-c2c[nH]c(=O)c(Cc3ccccc3)n2)cc1Br | 7.1
3 | > 10 | > 10 | COc1ccc(Cc2nc(-c3cc(Br)c(OCCCCN4CCOCC4)c(Br)c3)c[nH]c2=O)cc1Br | > 10
4 | 4 | 6 | CNCCCOc1c(Br)cc(-c2c[nH]c(=O)c(Cc3ccc(OC)c(Br)c3)n2)cc1Br [Ma'edamine B] | 5.77
5 | > 10 | > 10 | CNCCCOc1c(Br)cc(-c2c[nH]c(=O)c(Cc3ccccc3)n2)cc1Br | > 10
6 | > 10 | > 10 | COc1ccc(Cc2nc(-c3cc(Br)c(OCCCN4CCOCC4)c(Br)c3)c[nH]c2=O)cc1Br | > 10
7 | > 10 | > 10 | COc1ccc(Cc2nc(-c3cc(Br)c(OCCCN(C)C)c(Br)c3)c[nH]c2=O)cc1Br [Ma'edamine A] | > 10
8 | > 20 | – | CN(C)CCCOc1ccc(-c2c[nH]c(=O)c(Cc3c[nH]c4ccccc34)n2)cc1 | > 20
9 | 5.67 | 4.77 | CN(C)CCCOc1c(Br)cc(-c2c[nH]c(=O)c(Cc3ccc(O)c(Br)c3)n2)cc1Br | 6.67
10 | > 10 | > 10 | O=c1[nH]cc(-c2ccccc2)nc1Cc1ccccc1 | > 10
11 | 8.1 | 6.18 | CNCCOc1c(Br)cc(-c2c[nH]c(=O)c(Cc3ccc(OC)c(Br)c3)n2)cc1Br | > 10
12 | 7 | 6.33 | CN(C)CCCOc1c(Br)cc(-c2c[nH]c(=O)c(Cc3c[nH]c4ccccc34)n2)cc1Br | > 10
13 | 5.73 | 5.67 | COc1ccc(Cc2nc(-c3cc(Br)c(OCCN(C)C)c(Br)c3)c[nH]c2=O)cc1Br | > 10
14 | 4.33 | 4 | CNCCCOc1c(Br)cc(-c2c[nH]c(=O)c(Cc3c[nH]c4ccccc34)n2)cc1Br | 5.77
15 | 5.05 | > 10 | CS(=O)(=O)CCNCc1ccc(-c2ccc3ncnc(Nc4ccc(OCc5cccc(F)c5)c(Cl)c4)c3c2)o1 [LAPATINIB] | > 10
16 | > 10 | > 10 | COc1ccc(Cc2nc(-c3ccc(OCCCN4CCOCC4)cc3)c[nH]c2=O)cc1 | > 10
17 | > 10 | > 10 | COc1ccc(Cc2nc(-c3cc(Br)c(O)c(Br)c3)cnc2Cl)cc1Br | > 10
18 | > 10 | > 10 | COc1ccc(Cc2nc(-c3cc(Br)c(OCCCCN(C)C)c(Br)c3)c[nH]c2=O)cc1Br | > 10
19 | 6 | > 10 | CCN(CC)CCCOc1c(Br)cc(-c2c[nH]c(=O)c(Cc3ccc(OC)c(Br)c3)n2)cc1Br | 5.23
20 | > 10 | > 10 | COc1ccc(Cc2nc(-c3ccc(OCCCN(C)C)cc3)c[nH]c2=O)cc1 | > 10
21 | > 10 | > 10 | CC(C)c1nc(-c2cc(Br)c(OCCCN(C)C)c(Br)c2)c[nH]c1=O | > 10
22 | > 10 | > 10 | COc1ccc(Cc2nc(-c3ccc(OCCCCN(C)C)cc3)c[nH]c2=O)cc1 | > 10
23 | > 20 | – | CNCCCOc1ccc(-c2c[nH]c(=O)c(Cc3c[nH]c4ccccc34)n2)cc1 | > 20
